Assay results reported in ChEMBL document CHEMBL4842313, “Combating multi-drug resistant malaria parasite by inhibiting falcipain-2 and heme-polymerization: Artemisinin-peptidyl vinyl phosphonate hybrid molecules as new antimalarials” (Eur J Med Chem, 2021).
pEC50, pIC50: −log10 of the molar value. Active and inactive are the calls of the source. The rule behind the calls is not given here.

Legend:
[1] = system: Plasmodium falciparum; assay: Antimalarial activity against Plasmodium falciparum 3D7 assessed as parasite growth inhibition incubated for 48 hrs by SYBR green DNA fluorescent dye-binding assay; type: functional, organism-based; conditions: 3D7, 48 h
[2] = target: T1, Falcipain 2 (Plasmodium falciparum, UniProt Q9N6S8); assay: Inhibition of recombinant Plasmodium falciparum falcipain-2 expressed in Escherichia coli M15 assessed as reduction in free AMC release using Z-FR-AMC as a substrate measured over 30 mins by fluorometric assay
T1 sequence (Q9N6S8 whole entry): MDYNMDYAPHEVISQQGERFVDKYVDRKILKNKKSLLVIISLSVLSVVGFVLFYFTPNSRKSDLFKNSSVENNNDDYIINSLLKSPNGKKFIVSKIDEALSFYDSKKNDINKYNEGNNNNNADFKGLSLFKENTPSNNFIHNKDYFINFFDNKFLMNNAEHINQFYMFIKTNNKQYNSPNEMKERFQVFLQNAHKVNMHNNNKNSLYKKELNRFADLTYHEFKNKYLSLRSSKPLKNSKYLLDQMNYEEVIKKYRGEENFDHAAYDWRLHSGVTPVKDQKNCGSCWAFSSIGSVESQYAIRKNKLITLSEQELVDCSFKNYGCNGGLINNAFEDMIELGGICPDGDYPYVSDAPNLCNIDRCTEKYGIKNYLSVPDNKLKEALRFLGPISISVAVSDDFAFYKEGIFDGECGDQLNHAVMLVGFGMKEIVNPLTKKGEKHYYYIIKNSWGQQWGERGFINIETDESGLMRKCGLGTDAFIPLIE

[3] = target: T1, Falcipain 2; assay: Inhibition of recombinant Plasmodium falciparum falcipain-2 expressed in Escherichia coli M15 assessed as reduction in free AMC release using Z-FR-AMC as a substrate measured over 30 mins by Cheng-prusoff equation analysis
[4] = system: Plasmodium falciparum; assay: Antimalarial activity against chloroquine and pyrimethamine-resistant Plasmodium falciparum 7G8 assessed as parasite growth inhibition incubated for 48 hrs by SYBR green DNA fluorescent dye-binding assay; type: functional, organism-based; conditions: 7G8, 48 h
[5] = system: Plasmodium falciparum; assay: Antimalarial activity against chloroquine, pyrimethamine and mefloquine-resistant Plasmodium falciparum Dd2 assessed as parasite growth inhibition incubated for 48 hrs by SYBR green DNA fluorescent dye-binding assay; type: functional, organism-based; conditions: Dd2, 48 h
[6] = system: Plasmodium berghei; assay: Antimalarial activity against blood stage of Plasmodium berghei infected in BALB/c mouse assessed as parasite clearance at 12.5 mg/kg, ip administered once daily for 4 consecutive days measured on day 10 by Giemsa staining based assay (reference value: 0%); type: functional; conditions: time 10 day
[7] = system: Plasmodium berghei; assay: Antimalarial activity against blood stage of Plasmodium berghei infected in BALB/c mouse assessed as mouse survival time at 12.5 mg/kg, ip administered once daily for 4 consecutive days (reference value: 12 to 15 days); type: functional; conditions: time 4 day
[8] = system: A549; assay: Cytotoxicity against human A549 cells assessed as reduction in cell viability measured after 24 hrs by WST-1 assay; type: cell-based; conditions: A549, 24 h
[9] = system: Plasmodium falciparum; assay: Antimalarial activity against asexual blood stage of Plasmodium falciparum assessed as abnormalities in food vacuole observed upto 60 hrs post invasion; type: functional, organism-based; conditions: time hrs <=60
[10] = target: T2, Heme ligase (Plasmodium falciparum (isolate 3D7)) (UniProt Q8IL04); assay: Inhibition of recombinant Plasmodium falciparum heme detoxification protein expressed in Escherichia coli M15 assessed as reduction in hemozoin formation using heme as substrate measured after 3 hrs relative to control; conditions: concentration not given here
T2 sequence (whole entry): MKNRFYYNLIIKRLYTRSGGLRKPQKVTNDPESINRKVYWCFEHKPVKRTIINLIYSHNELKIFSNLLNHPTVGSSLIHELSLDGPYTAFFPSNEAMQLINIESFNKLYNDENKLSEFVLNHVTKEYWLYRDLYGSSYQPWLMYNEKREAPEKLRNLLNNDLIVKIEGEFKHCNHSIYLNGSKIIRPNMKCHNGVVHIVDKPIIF

[11] = system: Plasmodium falciparum; assay: Antimalarial activity against asexual blood stage of Plasmodium falciparum assessed as inhibition of mature schizonts development at EC50 observed at 48 hrs post invasion; type: functional, organism-based
[12] = system: Cytochrome P450; assay: Inhibition of CYP450 (unknown origin); type: ADME, protein assay; conditions: human
[13] = Drug degradation in human plasma; type: ADME, cell-free
[14] = system: Plasmodium falciparum; assay: Antimalarial activity against laboratory adapted artemisinin-resistant Plasmodium falciparum RT4974 assessed as inhibition of the survival of ring-stage parasite measured after 66 hrs by ring survival assay; type: functional, organism-based
[15] = system: Plasmodium falciparum; assay: Antimalarial activity against asexual blood stage of Plasmodium falciparum assessed as darkly stained dead parasites at EC50 observed at 60 hrs post invasion; type: functional, organism-based
[16] = system: Plasmodium berghei; assay: Antimalarial activity against blood stage of Plasmodium berghei infected in BALB/c mouse assessed as suppression of parasite growth at 12.5 mg/kg, ip administered once daily for 4 consecutive days measured on day 5 by Giemsa staining based assay; type: functional, organism-based; conditions: time 5.0 day
[17] = system: Plasmodium berghei; assay: Antimalarial activity against blood stage of Plasmodium berghei infected in BALB/c mouse assessed as suppression of parasite growth at 12.5 mg/kg, ip administered once daily for 4 consecutive days measured on day 6 by Giemsa staining based assay; type: functional, organism-based; conditions: time 6.0 day

`CCOP(=O)(/C=C/[C@@H](NC(=O)[C@H](Cc1ccccc1)NC(=O)[C@H](CO[C@H]1O[C@@H]2O[C@@]3(C)CC[C@H]4[C@H](C)CC[C@@H]([C@H]1C)[C@@]24OO3)NC(=O)OCc1ccccc1)c1ccccc1)OCC` showed a pEC50 [1] of 9.02.
In the case of `COC(=O)[C@H](CO[C@H]1O[C@@H]2O[C@@]3(C)CC[C@H]4[C@H](C)CC[C@@H]([C@H]1C)[C@@]24OO3)NC(=O)OCc1ccccc1`, the pIC50 [2] was under 4.00 and the Ki [3] was “Not Active”.
With `CCOP(=O)(/C=C/[C@H](NC(=O)[C@H](CC(C)C)NC(=O)[C@@H]1C[C@@H](O[C@H]2O[C@@H]3O[C@@]4(C)CC[C@H]5[C@H](C)CC[C@@H]([C@H]2C)[C@@]35OO4)CN1C(=O)OCc1ccccc1)c1ccccc1)OCC` the Ki [3] was “Not Active” and the pEC50 [1] was 8.21.
With `C[C@@H]1CC[C@H]2[C@@H](C)C(=O)O[C@@H]3O[C@@]4(C)CC[C@@H]1[C@]32OO4` [ARTEMISININ] the pEC50 [1] was 7.57, the pEC50 [4] was 7.74 and the pEC50 [5] was 7.82. It also gave an Activity [6] of 0% and a Survival [7] of 15 days.
For `CCOP(=O)(/C=C/C(NC(=O)[C@H](CO[C@H]1O[C@@H]2O[C@@]3(C)CC[C@H]4[C@H](C)CC[C@@H]([C@H]1C)[C@@]24OO3)NC(=O)OCc1ccccc1)c1ccccc1)OCC` (stereo partly drawn), the pIC50 [2] was under 4.00 and the Ki [3] was “Not Active”.
`CCOP(=O)(/C=C/[C@@H](NC(=O)[C@H](CC(C)C)NC(=O)[C@@H]1C[C@@H](O[C@H]2O[C@@H]3O[C@@]4(C)CC[C@H]5[C@H](C)CC[C@@H]([C@H]2C)[C@@]35OO4)CN1C(=O)OCc1ccccc1)c1ccccc1)OCC` gave a pEC50 [1] of 8.98.
For `COC(=O)[C@H](CC(C)C)NC(=O)[C@H](CO[C@H]1O[C@@H]2O[C@@]3(C)CC[C@H]4[C@H](C)CC[C@@H]([C@H]1C)[C@@]24OO3)NC(=O)OCc1ccccc1`, the pIC50 [2] was under 4.00 and the Ki [3] was “Not Active”.
With `CCOP(=O)(/C=C/C(NC(=O)[C@H](Cc1ccccc1)NC(=O)[C@@H]1C[C@@H](O[C@H]2O[C@@H]3O[C@@]4(C)CC[C@H]5[C@H](C)CC[C@@H]([C@H]2C)[C@@]35OO4)CN1C(=O)OCc1ccccc1)c1ccccc1)OCC` (stereo partly drawn) the pIC50 [2] was under 4.00 and the Ki [3] was “Not Active”.
With `CCOP(=O)(/C=C/C(NC(=O)[C@@H]1C[C@@H](O[C@H]2O[C@@H]3O[C@@]4(C)CC[C@H]5[C@H](C)CC[C@@H]([C@H]2C)[C@@]35OO4)CN1C(=O)OCc1ccccc1)c1ccccc1)OCC` (stereo partly drawn) the pIC50 [2] was under 4.00 and the Ki [3] was “Not Active”.
For `CCOP(=O)(/C=C/C(N)c1ccccc1)OCC` (stereo not drawn), the pEC50 [8] was under 4.52, the pIC50 [2] was under 4.60 and the Ki [3] was “Not Active”. It also gave a pEC50 [1] of under 4.00.
For `COC(=O)[C@@H]1C[C@@H](O[C@H]2O[C@@H]3O[C@@]4(C)CC[C@H]5[C@H](C)CC[C@@H]([C@H]2C)[C@@]35OO4)CN1C(=O)OCc1ccccc1`, the pIC50 [2] was under 4.00 and the Ki [3] was “Not Active”.
Work on `CCOP(=O)(/C=C/[C@H](NC(=O)[C@H](Cc1ccccc1)NC(=O)[C@H](CO[C@H]1O[C@@H]2O[C@@]3(C)CC[C@H]4[C@H](C)CC[C@@H]([C@H]1C)[C@@]24OO3)NC(=O)OCc1ccccc1)c1ccccc1)OCC` yielded a pEC50 [1] of 8.69.
In the case of `C[C@H]1[C@@H](O)O[C@@H]2O[C@@]3(C)CC[C@H]4[C@H](C)CC[C@@H]1[C@@]24OO3` [ARTENIMOL], the pEC50 [8] was under 4.60, the pIC50 [2] was under 4.00 and the Ki [3] was “Not Active”. The pEC50 [1] was 8.30.
In the case of `COC(=O)[C@H](Cc1ccccc1)NC(=O)[C@H](CO[C@H]1O[C@@H]2O[C@@]3(C)CC[C@H]4[C@H](C)CC[C@@H]([C@H]1C)[C@@]24OO3)NC(=O)OCc1ccccc1`, the pIC50 [2] was under 4.00 and the Ki [3] was “Not Active”.
With `COC(=O)[C@H](CC(C)C)NC(=O)[C@@H]1C[C@@H](O[C@H]2O[C@@H]3O[C@@]4(C)CC[C@H]5[C@H](C)CC[C@@H]([C@H]2C)[C@@]35OO4)CN1C(=O)OCc1ccccc1` the pIC50 [2] was under 4.00 and the Ki [3] was “Not Active”.
With `CCOP(=O)(/C=C/C(NC(=O)[C@H](CC(C)C)NC(=O)[C@@H]1C[C@@H](O[C@H]2O[C@@H]3O[C@@]4(C)CC[C@H]5[C@H](C)CC[C@@H]([C@H]2C)[C@@]35OO4)CN1C(=O)OCc1ccccc1)c1ccccc1)OCC` (stereo partly drawn) the Activity [9] was “Active”, the pEC50 [8] was 5.89 and the inhibition [10] was 90%. The pEC50 [1] was 8.59, the pEC50 [4] was 8.92 and the pEC50 [5] was 8.26. The Activity [11] was “Active”, the “inhibition (INH)” value [12] was “Active” and the Stabilty [13] was “Unstable”. For the same molecule, the Activity [14] was “Active”, the Activity [6] was 100% and the Survival [7] was over 60 days. For the same molecule, the Activity [15] was “Active”, the Activity [16] was “inactive” and the Activity [17] was “Active”.
Molecule `CCOP(=O)(/C=C/[C@H](NC(=O)[C@H](CC(C)C)NC(=O)[C@H](CO[C@H]1O[C@@H]2O[C@@]3(C)CC[C@H]4[C@H](C)CC[C@@H]([C@H]1C)[C@@]24OO3)NC(=O)OCc1ccccc1)c1ccccc1)OCC` has a pEC50 [1] of 7.78.
In the case of `COC(=O)[C@H](Cc1ccccc1)NC(=O)[C@@H]1C[C@@H](O[C@H]2O[C@@H]3O[C@@]4(C)CC[C@H]5[C@H](C)CC[C@@H]([C@H]2C)[C@@]35OO4)CN1C(=O)OCc1ccccc1`, the pIC50 [2] was under 4.00 and the Ki [3] was “Not Active”.
With `CCOP(=O)(/C=C/[C@@H](NC(=O)[C@H](CC(C)C)NC(=O)[C@H](CO[C@H]1O[C@@H]2O[C@@]3(C)CC[C@H]4[C@H](C)CC[C@@H]([C@H]1C)[C@@]24OO3)NC(=O)OCc1ccccc1)c1ccccc1)OCC` the pEC50 [1] was 7.96.
With `CCOP(=O)(/C=C/C(NC(=O)[C@H](Cc1ccccc1)NC(=O)[C@H](CO[C@H]1O[C@@H]2O[C@@]3(C)CC[C@H]4[C@H](C)CC[C@@H]([C@H]1C)[C@@]24OO3)NC(=O)OCc1ccccc1)c1ccccc1)OCC` (stereo partly drawn) the Activity [9] was “Active”, the pEC50 [8] was 4.84 and the inhibition [10] was 80%. For the same molecule, the pEC50 [1] was 8.57, the pEC50 [4] was 9.33 and the pEC50 [5] was 8.72. For the same molecule, the Activity [11] was “Active”, the “inhibition (INH)” value [12] was “Active” and the Stabilty [13] was “Unstable”. For the same molecule, the Activity [14] was “Active”, the Activity [6] was 80% and the Survival [7] was over 60 days. The Activity [15] was “Active”, the Activity [16] was “inactive” and the Activity [17] was “Active”.
In the case of `CCOP(=O)(/C=C/C(NC(=O)[C@H](CC(C)C)NC(=O)[C@H](CO[C@H]1O[C@@H]2O[C@@]3(C)CC[C@H]4[C@H](C)CC[C@@H]([C@H]1C)[C@@]24OO3)NC(=O)OCc1ccccc1)c1ccccc1)OCC` (stereo partly drawn), the Activity [9] was “Active”, the pEC50 [8] was 5.42 and the inhibition [10] was 60%. For the same molecule, the pEC50 [1] was 8.48, the pEC50 [4] was 9.64 and the pEC50 [5] was 8.46. For the same molecule, the Activity [11] was “Active”, the “inhibition (INH)” value [12] was “Active” and the Stabilty [13] was “Unstable”. For the same molecule, the Activity [14] was “Active”, the Activity [6] was 100% and the Survival [7] was over 60 days. For the same molecule, the Activity [15] was “Active”, the Activity [16] was “inactive” and the Activity [17] was “Active”.
